Experimental data as given in patent US20090270394A1, “CYCLYLAMINE DERIVATIVES AS CALCIUM CHANNEL BLOCKERS” (priority 2008, published 2009).

Biological target: T1, Human Cav2.2 channels (Homo sapiens, UniProt Q00975)
T1 construct: expressed in transfected cells
Test: Fluorescent assay for Cav2.2 channels using potassium depolarization to initiate channel opening
Type: cell-based
Conditions: for inhibition at 10 µM: 10 μM compound, read-out: Cav 2.2 Activity % Inh at 10 μM; for IC50: 30 mM K (block of open and inactivated channels), read-out: Cav 2.2 Activity IC50 at 30 mM K; for inhibition at 30 µM: 30 μM compound, read-out: Cav 2.2 Activity % Inh at 30 μM
Text: Human Cav2.2 channels were stably expressed in HEK293 cells along with alpha2-delta and beta subunits of voltage-gated calcium channels. An inwardly rectifying potassium channel (Kir2.3) was also expressed in these cells to allow more precise control of the cell membrane potential by extracellular potassium concentration. At low bath potassium concentration, the membrane potential is relatively negative, and is depolarized as the bath potassium concentration is raised. In this way, the bath potassium concentration can be used to regulate the voltage-dependent conformations of the channels. […] After the incubation period, Cav2.2 channel opening is triggered by addition of higher concentration of potassium (70 mM final concentration) to further depolarize the cell. The degree of state-dependent block can be estimated from the inhibitory potency of compounds after incubation in different potassium concentrations.
Calcium influx through Cav2.2 channels is determined using a calcium sensitive fluorescent dye in combination with a fluorescent plate reader. Fluorescent changes were measured with either a VIPR (Aurora Instruments) or FLIPR (Molecular Devices) plate reader.
• 1. Seed cells in Poly-D-Lysine Coated 96 or 384-well plate and keep in a 37° C.-10% CO2 incubator overnight • 2. […] Incubate in the dark at 25° C. for 60-70 min • 5. Remove dye, wash cells with 0.1 mL (96-well plate) or 0.06 mL (384-well plate) of 4, 12, 25, or 30 mM Potassium Pre-polarization Buffer (PPB) • 6. […] Incubate in the dark at 25° C. for 30 min • 8. Read cell plate on VIPR instrument, Excitation=480 nm, Emission=535 nm • 9. With VIPR continuously reading, add 0.1 mL (96-well plate) or 0.03 mL (384-well plate) of Depolarization Buffer (DB), which is 2× the final assay concentration, to the cell plate.

T1 sequence (Q00975 whole entry): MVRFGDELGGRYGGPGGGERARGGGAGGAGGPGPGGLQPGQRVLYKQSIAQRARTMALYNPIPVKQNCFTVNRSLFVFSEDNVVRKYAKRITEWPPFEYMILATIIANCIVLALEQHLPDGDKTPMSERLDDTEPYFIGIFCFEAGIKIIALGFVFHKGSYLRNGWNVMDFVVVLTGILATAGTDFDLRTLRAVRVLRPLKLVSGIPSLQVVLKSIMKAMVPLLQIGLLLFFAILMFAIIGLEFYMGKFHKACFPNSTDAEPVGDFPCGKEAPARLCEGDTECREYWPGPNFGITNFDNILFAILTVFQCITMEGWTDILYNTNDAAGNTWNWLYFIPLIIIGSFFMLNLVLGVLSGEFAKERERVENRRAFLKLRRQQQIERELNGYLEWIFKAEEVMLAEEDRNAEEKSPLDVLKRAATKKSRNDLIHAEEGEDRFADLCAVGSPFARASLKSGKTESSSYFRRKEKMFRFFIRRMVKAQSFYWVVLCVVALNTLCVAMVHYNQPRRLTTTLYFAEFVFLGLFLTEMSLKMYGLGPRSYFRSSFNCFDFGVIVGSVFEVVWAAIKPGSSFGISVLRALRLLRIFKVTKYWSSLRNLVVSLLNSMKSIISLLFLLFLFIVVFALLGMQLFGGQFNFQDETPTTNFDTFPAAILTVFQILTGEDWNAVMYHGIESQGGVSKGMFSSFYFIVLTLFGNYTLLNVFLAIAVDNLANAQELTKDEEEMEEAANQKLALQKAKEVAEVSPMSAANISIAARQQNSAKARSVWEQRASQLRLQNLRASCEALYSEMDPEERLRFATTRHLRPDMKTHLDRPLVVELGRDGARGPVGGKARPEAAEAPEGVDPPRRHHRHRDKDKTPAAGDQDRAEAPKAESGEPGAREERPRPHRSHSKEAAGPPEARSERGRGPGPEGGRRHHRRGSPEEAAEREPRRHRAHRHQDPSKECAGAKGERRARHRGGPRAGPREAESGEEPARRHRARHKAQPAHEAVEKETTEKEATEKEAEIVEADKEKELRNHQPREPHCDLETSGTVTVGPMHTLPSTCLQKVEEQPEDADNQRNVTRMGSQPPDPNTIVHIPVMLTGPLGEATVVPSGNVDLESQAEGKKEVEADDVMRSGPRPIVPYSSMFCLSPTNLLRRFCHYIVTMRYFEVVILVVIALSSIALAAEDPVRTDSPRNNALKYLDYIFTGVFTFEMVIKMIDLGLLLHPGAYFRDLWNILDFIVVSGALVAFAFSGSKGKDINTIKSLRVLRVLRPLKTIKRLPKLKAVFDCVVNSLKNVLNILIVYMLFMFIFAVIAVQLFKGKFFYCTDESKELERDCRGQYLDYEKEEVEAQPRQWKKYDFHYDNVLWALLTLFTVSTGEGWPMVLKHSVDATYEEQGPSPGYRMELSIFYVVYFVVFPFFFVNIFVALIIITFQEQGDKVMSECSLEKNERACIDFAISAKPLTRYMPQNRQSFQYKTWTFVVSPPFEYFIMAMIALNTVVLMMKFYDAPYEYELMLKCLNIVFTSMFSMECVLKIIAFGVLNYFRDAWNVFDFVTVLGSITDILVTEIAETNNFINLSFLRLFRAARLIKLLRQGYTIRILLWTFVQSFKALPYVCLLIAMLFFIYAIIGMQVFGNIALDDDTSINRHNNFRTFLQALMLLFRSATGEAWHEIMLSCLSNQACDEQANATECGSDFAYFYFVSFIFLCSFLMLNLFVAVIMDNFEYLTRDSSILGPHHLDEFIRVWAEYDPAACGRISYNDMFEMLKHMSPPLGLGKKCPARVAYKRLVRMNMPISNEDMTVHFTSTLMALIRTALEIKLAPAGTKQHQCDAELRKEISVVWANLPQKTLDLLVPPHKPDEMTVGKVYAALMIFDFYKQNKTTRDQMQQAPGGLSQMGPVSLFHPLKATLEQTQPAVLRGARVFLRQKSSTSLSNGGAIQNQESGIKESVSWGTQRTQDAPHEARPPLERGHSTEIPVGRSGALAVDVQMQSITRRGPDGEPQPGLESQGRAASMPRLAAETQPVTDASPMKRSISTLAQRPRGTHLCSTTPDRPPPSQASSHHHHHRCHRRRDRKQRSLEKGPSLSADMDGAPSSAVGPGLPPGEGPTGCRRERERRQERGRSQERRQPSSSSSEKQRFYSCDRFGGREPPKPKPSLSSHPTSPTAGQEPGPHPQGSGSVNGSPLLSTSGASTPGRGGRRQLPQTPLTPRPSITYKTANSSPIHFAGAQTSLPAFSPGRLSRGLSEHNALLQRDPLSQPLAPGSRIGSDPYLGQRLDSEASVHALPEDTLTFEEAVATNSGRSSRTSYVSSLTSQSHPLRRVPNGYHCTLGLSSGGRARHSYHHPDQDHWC
T1 sequence (P54289 25-1103 partner): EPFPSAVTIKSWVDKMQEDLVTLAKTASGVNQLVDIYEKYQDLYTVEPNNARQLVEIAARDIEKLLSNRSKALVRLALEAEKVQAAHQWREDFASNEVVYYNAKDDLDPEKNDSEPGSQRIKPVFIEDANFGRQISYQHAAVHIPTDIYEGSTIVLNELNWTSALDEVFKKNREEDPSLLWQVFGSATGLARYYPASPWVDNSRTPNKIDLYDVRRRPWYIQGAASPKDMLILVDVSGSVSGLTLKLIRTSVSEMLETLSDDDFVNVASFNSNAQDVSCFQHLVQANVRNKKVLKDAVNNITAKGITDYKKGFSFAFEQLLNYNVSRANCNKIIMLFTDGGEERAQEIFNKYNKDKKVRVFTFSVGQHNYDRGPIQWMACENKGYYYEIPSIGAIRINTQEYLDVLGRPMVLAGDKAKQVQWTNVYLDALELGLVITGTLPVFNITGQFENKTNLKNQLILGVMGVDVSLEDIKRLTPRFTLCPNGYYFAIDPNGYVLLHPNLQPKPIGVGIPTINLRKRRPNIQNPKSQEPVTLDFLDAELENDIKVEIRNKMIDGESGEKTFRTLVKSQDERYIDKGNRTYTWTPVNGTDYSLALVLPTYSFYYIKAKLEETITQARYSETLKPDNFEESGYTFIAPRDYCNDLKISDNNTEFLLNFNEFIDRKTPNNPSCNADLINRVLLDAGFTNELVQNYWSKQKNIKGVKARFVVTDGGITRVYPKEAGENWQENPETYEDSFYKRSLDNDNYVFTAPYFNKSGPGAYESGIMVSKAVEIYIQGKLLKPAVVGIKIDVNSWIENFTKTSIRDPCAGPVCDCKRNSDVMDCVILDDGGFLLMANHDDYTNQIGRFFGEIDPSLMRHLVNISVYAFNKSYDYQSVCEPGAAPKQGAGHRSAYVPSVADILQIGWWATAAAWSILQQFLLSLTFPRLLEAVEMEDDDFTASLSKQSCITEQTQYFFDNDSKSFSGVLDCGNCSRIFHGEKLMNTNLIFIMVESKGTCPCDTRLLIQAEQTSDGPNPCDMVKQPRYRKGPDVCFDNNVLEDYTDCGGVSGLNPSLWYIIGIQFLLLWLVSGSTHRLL
T1 sequence (P54284 whole entry partner): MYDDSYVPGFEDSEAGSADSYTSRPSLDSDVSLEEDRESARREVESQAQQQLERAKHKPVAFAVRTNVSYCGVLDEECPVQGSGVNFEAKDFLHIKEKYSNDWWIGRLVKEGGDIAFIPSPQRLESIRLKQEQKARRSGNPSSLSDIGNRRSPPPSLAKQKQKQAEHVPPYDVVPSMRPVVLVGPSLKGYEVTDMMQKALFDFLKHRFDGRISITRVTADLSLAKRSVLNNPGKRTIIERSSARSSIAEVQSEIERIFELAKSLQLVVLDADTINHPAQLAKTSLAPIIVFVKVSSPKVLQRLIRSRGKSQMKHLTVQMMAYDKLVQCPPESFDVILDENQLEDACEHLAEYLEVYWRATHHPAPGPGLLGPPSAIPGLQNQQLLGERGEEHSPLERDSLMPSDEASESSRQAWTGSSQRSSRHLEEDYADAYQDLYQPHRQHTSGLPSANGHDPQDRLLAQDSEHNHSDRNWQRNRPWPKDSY

Row | Compound | inhibition at 10 µM [%] | IC50 [nM] | inhibition at 30 µM [%]
1 | CN1CCN(Cc2ccc(CNC(=O)C3(NC(=O)c4cc(C(C)(C)C)nc(C(C)(C)C)c4)CCOCC3)cc2)CC1 [Compound 27, 2,6-di-tert-butyl-N-(4-(4-((4-methylpiperazin-1-yl)methyl)benzylcarbamoyl)tetrahydro-2H-pyran-4-yl)isonicotinamide] | 102 | 1040 | 
2 | CNC(=O)C1(NC(=O)c2cc(C(C)(C)C)c(OC)c(C(C)(C)C)c2)CCCCC1 [Compound 28, 3,5-di-tert-butyl-4-methoxy-N-(1-(methylcarbamoyl)cyclohexyl)benzamide] | 82.6 | 69.3 | 89.4
3 | COc1c(C(C)(C)C)cc(C(=O)NC2(C(=O)N3CCOCC3)CCCCC2)cc1C(C)(C)C [Compound 29, 3,5-di-tert-butyl-4-methoxy-N-(1-(morpholine-4-carbonyl)cyclohexyl)benzamide] | 85.8 | 67.6 | 90.5
4 | COc1c(C(C)(C)C)cc(C(=O)NC2(C(=O)N3CCCC3)CCCCC2)cc1C(C)(C)C [Compound 30, 3,5-di-tert-butyl-4-methoxy-N-(1-(pyrrolidine-1-carbonyl)cyclohexyl)benzamide] | 91.7 | 25.2 | 93.4
5 | COc1ccc(CNC(=O)C2(NC(=O)c3cc(C(C)(C)C)c(OC)c(C(C)(C)C)c3)CCCCC2)cc1 [Compound 31, 3,5-di-tert-butyl-4-methoxy-N-(1-(4-methoxybenzylcarbamoyl)cyclohexyl)benzamide] | 87.5 | 2.6 | 105
6 | COc1c(C(C)(C)C)cc(C(=O)NC2(C(=O)NCc3ccccc3)CCCCC2)cc1C(C)(C)C [Compound 32, N-(1-(benzylcarbamoyl)cyclohexyl)-3,5-di-tert-butyl-4-methoxybenzamide] | 88.8 | 5.6 | 98
7 | COc1c(C(C)(C)C)cc(C(=O)NC2(C(=O)NCc3cccc(C(F)(F)F)c3)CCCCC2)cc1C(C)(C)C [Compound 33, 3,5-di-tert-butyl-4-methoxy-N-(1-(3-(trifluoromethyl)benzylcarbamoyl)cyclohexyl)benzamide] | 81.4 | 37.6 | 90.5
8 | CC(C)(C)c1cc(C(=O)NC2(C(=O)O)CCCCC2)cc(C(C)(C)C)c1 [Compound 34, 1-(3,5-di-tert-butylbenzamido)cyclohexanecarboxylic acid] | 68.2 |  | 82.3
9 | CNC(=O)C1(NC(=O)c2cc(C(C)(C)C)cc(C(C)(C)C)c2)CCCCC1 [Compound 35, 3,5-di-tert-butyl-N-(1-(methylcarbamoyl)cyclohexyl)benzamide] | 92.5 | 1260 | 98.6
10 | CC(C)(C)c1cc(C(=O)NC2(C(=O)NCc3ccccc3)CCCC2)cc(C(C)(C)C)c1 [Compound 36, N-(1-(benzylcarbamoyl)cyclopentyl)-3,5-di-tert-butylbenzamide] | 92 | 251 | 96.4
11 | COc1ccc(CNC(=O)C2(NC(=O)c3cc(C(C)(C)C)cc(C(C)(C)C)c3)CCCC2)cc1 [Compound 37, 3,5-di-tert-butyl-N-(1-(4-methoxybenzylcarbamoyl)cyclopentyl)benzamide] | 93 | 153 | 95.8
12 | COc1ccc(CNC(=O)C2(NC(=O)c3cc(C(C)(C)C)c(OC)c(C(C)(C)C)c3)CCCC2)cc1 [Compound 38, 3,5-di-tert-butyl-4-methoxy-N-(1-(4-methoxybenzylcarbamoyl)cyclopentyl)benzamide] | 97.8 | 35.9 | 99
13 | CC(C)(C)c1cc(C(=O)NC2(C(=O)NCc3cccc(C(F)(F)F)c3)CCCC2)cc(C(C)(C)C)c1 [Compound 39, 3,5-di-tert-butyl-N-(1-(3-(trifluoromethyl)benzylcarbamoyl)cyclopentyl)benzamide] | 79.6 | 513 | 77.9
14 | CC(C)(C#N)c1cc(C(=O)NC2(C(=O)NCc3cccc(C(F)(F)F)c3)CCCCC2)cc(C(C)(C)C#N)c1 [Compound 40, 3,5-bis(2-cyanopropan-2-yl)-N-(1-(3-(trifluoromethyl)benzylcarbamoyl)cyclohexyl)benzamide] | 80 | 367 | 77.6
15 | CC(C)(C#N)c1cc(C(=O)NC2(C(=O)NCc3ccccc3)CCCCC2)cc(C(C)(C)C#N)c1 [Compound 41, N-(1-(benzylcarbamoyl)cyclohexyl)-3,5-bis(2-cyanopropan-2-yl)benzamide] | 76 | 985 | 73.3

The remaining lines, values ahead:

Row | inhibition at 10 µM [%] | IC50 [nM] | inhibition at 30 µM [%] | Compound
16 | 70.6 |  | 80.2 | CC(C)(C)c1cc(NC(=O)C2(NCc3ccc(F)cc3F)CCCCC2)cc(C(C)(C)C)c1 [Compound 42, N-(3,5-di-tert-butylphenyl)-1-(2,4-difluorobenzylamino)cyclohexanecarboxamide]
17 | 76.2 |  | 82.5 | CC(C)(C)c1cc(NC(=O)C2(NCc3ccccc3)CCCCC2)cc(C(C)(C)C)c1 [Compound 43, 1-(benzylamino)-N-(3,5-di-tert-butylphenyl)cyclohexanecarboxamide]
18 | 92.5 | 60.4 | 97.3 | CC(C)(C)c1cc(C(=O)NC2(C(=O)NCc3ccccc3)CCCCC2)cc(C(C)(C)C)c1 [Compound 44, N-(1-(benzylcarbamoyl)cyclohexyl)-3,5-di-tert-butylbenzamide]
19 | 95.7 | 25.2 | 99.5 | COc1ccc(CNC(=O)C2(NC(=O)c3cc(C(C)(C)C)cc(C(C)(C)C)c3)CCCCC2)cc1 [Compound 45, 3,5-di-tert-butyl-N-(1-(4-methoxybenzylcarbamoyl)cyclohexyl)benzamide]
20 | 96.6 | 77.9 | 97.9 | CC(C)(C)c1cc(C(=O)NC2(C(=O)NCc3ccc(Cl)cc3)CCCCC2)cc(C(C)(C)C)c1 [Compound 46, 3,5-di-tert-butyl-N-(1-(4-chlorobenzylcarbamoyl)cyclohexyl)benzamide]
21 | 93.7 | 35.6 | 95.3 | CC(C)(C)c1cc(C(=O)NC2(C(=O)NCc3ccccn3)CCCCC2)cc(C(C)(C)C)c1 [Compound 47, 3,5-di-tert-butyl-N-(1-(pyridin-2-ylmethylcarbamoyl)cyclohexyl)benzamide]
22 | 88.7 | 371 | 90.3 | CN(C)c1ccc(CNC(=O)C2(NC(=O)c3cc(C(C)(C)C)cc(C(C)(C)C)c3)CCCCC2)cc1 [Compound 48, 3,5-di-tert-butyl-N-(1-(4-(dimethylamino)benzylcarbamoyl)cyclohexyl)benzamide]
23 | 103 | 44.2 | 91.6 | CC(C)(C)c1cc(C(=O)NC2(C(=O)NCc3ccc(F)cc3)CCCCC2)cc(C(C)(C)C)c1 [Compound 49, 3,5-di-tert-butyl-N-(1-(4-fluorobenzylcarbamoyl)cyclohexyl)benzamide]
